# Experimental data reported in publication PMC11470957, “Principles of paralog-specific targeted protein degradation engaging the C-degron E3 KLHDC2” (Nature Communications, 2024).
# Where “and” joins values, the source holds several entries; their conditions need not be identical. Equal values may be shown once.
# Target: T1, KLHDC2 (Homo sapiens, UniProt Q9Y2U9)
# T1 sequence (Q9Y2U9 1-406): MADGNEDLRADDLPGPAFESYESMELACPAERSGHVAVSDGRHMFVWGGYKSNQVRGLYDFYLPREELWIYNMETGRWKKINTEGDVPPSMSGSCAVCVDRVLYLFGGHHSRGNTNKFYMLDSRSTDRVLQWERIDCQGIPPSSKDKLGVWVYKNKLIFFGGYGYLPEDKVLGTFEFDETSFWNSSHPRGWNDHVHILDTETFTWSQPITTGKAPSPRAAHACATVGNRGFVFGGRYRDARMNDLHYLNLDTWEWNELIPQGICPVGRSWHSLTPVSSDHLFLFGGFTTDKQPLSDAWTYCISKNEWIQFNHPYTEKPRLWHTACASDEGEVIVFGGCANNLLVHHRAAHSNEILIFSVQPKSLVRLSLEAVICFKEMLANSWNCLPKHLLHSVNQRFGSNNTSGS
# Test: Western blot of KLHDC2 levels after cellular dosing
smiles,measurement,setting,value
COC(=O)CNC(=O)Cc1csc(-c2ccc3cccc(OCCN4CCN(C(=O)C[C@@H]5N=C(c6ccc(Cl)cc6)c6c(sc(C)c6C)-n6c(C)nnc65)CC4)c3c2)n1 [SJ46420],"KLHDC2 level, Western blot quantification (DMSO = 100)","Fig S6f, 22RV1 KO/rescue Dose Response, 10uM",382 and 330
same,"KLHDC2 level, Western blot quantification (DMSO = 100)","Fig S6g, SKBR3 Time course, 1 uM, 2hr",96.2473 and 100.234
same,"KLHDC2 level, Western blot quantification (DMSO = 100)","Fig S6g, SKBR3 Time course, 1 uM, 4hr",98.547 and 105.246
same,"KLHDC2 level, Western blot quantification (DMSO = 100)","Fig S6g, SKBR3 Time course, 1 uM, 8hr",108.754 and 118.735
same,"KLHDC2 level, Western blot quantification (DMSO = 100)","Fig S6g, SKBR3 Time course, 5 uM, 2hr",110.116 and 102.856
same,"KLHDC2 level, Western blot quantification (DMSO = 100)","Fig S6g, SKBR3 Time course, 5 uM, 4hr",118.1 and 127.234
same,"KLHDC2 level, Western blot quantification (DMSO = 100)","Fig S6g, SKBR3 Time course, 5 uM, 8hr",125.323 and 132.123
same,"KLHDC2 level, Western blot quantification (DMSO = 100)","Fig S6i, SKBR3, 5uM",108.759 and 120.207
same,"KLHDC2 level, Western blot quantification (DMSO = 100)","Fig S6i, U2OS, 5uM",115.927 and 106.939
same,"KLHDC2 level, Western blot quantification (DMSO = 100)","Fig S6h, U2OS Time course, 5uM, 2hr",102.827 and 100.635
same,"KLHDC2 level, Western blot quantification (DMSO = 100)","Fig S6h, U2OS Time course, 5uM, 4hr",116.419 and 128.136
same,"KLHDC2 level, Western blot quantification (DMSO = 100)","Fig S6h, U2OS Time course, 5uM, 8hr",157.536 and 145.235
same,"KLHDC2 level, Western blot quantification (DMSO = 100)","Fig S6h, U2OS Time course, 5uM, 24hr",121.407 and 133.135
same,"KLHDC2 level, Western blot quantification (DMSO = 100)","Fig S6d, U2OS KO/rescue Dose Response, 0.156 uM",140 and 155
same,"KLHDC2 level, Western blot quantification (DMSO = 100)","Fig S6d, U2OS KO/rescue Dose Response, 0.313 uM",192 and 220
same,"KLHDC2 level, Western blot quantification (DMSO = 100)","Fig S6d, U2OS KO/rescue Dose Response, 0.625 uM",253 and 275
same,"KLHDC2 level, Western blot quantification (DMSO = 100)","Fig S6d, U2OS KO/rescue Dose Response, 1.25 uM",345 and 380
same,"KLHDC2 level, Western blot quantification (DMSO = 100)","Fig S6d, U2OS KO/rescue Dose Response, 2.5 uM",540 and 580
same,"KLHDC2 level, Western blot quantification (DMSO = 100)","Fig S6d, U2OS KO/rescue Dose Response, 5 uM",581 and 620
same,KLHDC2 level relative to DMSO (100%),"MDA-MB-468, 2.5µM, 24 h, Fig S6b",158 +/- 1.9%
same,KLHDC2 level relative to DMSO (100%),"MDA-MB-468, 5µM, 24 h, Fig S6b",172 +/- 4.4%
same,KLHDC2 level relative to DMSO (100%),"MDA-MB-468, 10µM, 24 h, Fig S6b",195 +/- 7.2%
same,KLHDC2 level relative to DMSO (100%),"PC3, 0.16µM, 24 h, Fig S6e",65 +/- 9.7%
same,KLHDC2 level relative to DMSO (100%),"PC3, 0.31µM, 24 h, Fig S6e",68 +/- 8.9%
same,KLHDC2 level relative to DMSO (100%),"PC3, 0.63µM, 24 h, Fig S6e",43 +/- 15%
same,KLHDC2 level relative to DMSO (100%),"PC3, 1.3µM, 24 h, Fig S6e",48 +/- 8.5%
same,KLHDC2 level relative to DMSO (100%),"PC3, 2.5µM, 24 h, Fig S6e",50 +/- 8.6%
same,KLHDC2 level relative to DMSO (100%),"PC3, 5µM, 24 h, Fig S6e",49 +/- 6.1%
same,KLHDC2 level relative to DMSO (100%),"PC3, 10µM, 24 h, Fig S6e",40 +/- 7.2%
same,KLHDC2 level relative to DMSO (100%),"SKBR3, 1µM, 2hr, Fig S6g",98 +/- 2.6%
same,KLHDC2 level relative to DMSO (100%),"SKBR3, 1µM, 4hr, Fig S6g",101 +/- 4.6%
same,KLHDC2 level relative to DMSO (100%),"SKBR3, 5µM, 2hr, Fig S6g",106 +/- 5.8%
same,KLHDC2 level relative to DMSO (100%),"SKBR3, 5µM, 4hr, Fig S6g",122 +/- 6.3%
same,KLHDC2 level relative to DMSO (100%),"SKBR3, 5µM, 8hr, Fig S6g",129 +/- 4.7%
same,KLHDC2 level relative to DMSO (100%),"U2OS DC2KO (KLHDC2 knockout), 5µM, 24 h, Fig 6b",0 +/- 0%
same,KLHDC2 level relative to DMSO (100%),"U2OS KO/Rescue, 0.16µM, 24 h, Fig S6d",146 +/- 12%
same,KLHDC2 level relative to DMSO (100%),"U2OS KO/Rescue, 0.31µM, 24 h, Fig S6d",205 +/- 21%
same,KLHDC2 level relative to DMSO (100%),"U2OS KO/Rescue, 0.63µM, 24 h, Fig S6d",264 +/- 16%
same,KLHDC2 level relative to DMSO (100%),"U2OS KO/Rescue, 1µM + co-dosing 1µM MLN4924, 24 h, Fig 6d",4170 +/- 238%
same,KLHDC2 level relative to DMSO (100%),"U2OS KO/Rescue, 1µM, 24 h, Fig 6c",407 +/- 47%
same,KLHDC2 level relative to DMSO (100%),"U2OS KO/Rescue, 1µM, 24 h, Fig 6d",1460 +/- 196%
same,KLHDC2 level relative to DMSO (100%),"U2OS KO/Rescue, 1.3µM, 24 h, Fig S6d",362 +/- 25%
same,KLHDC2 level relative to DMSO (100%),"U2OS KO/Rescue, 2.5µM, 24 h, Fig S6d",559 +/- 29%
same,KLHDC2 level relative to DMSO (100%),"U2OS KO/Rescue, 5µM, 24 h, Fig S6d",600 +/- 32%
same,KLHDC2 level relative to DMSO (100%),"U2OS KO/Rescue, concentration not printed (line after 5µM), 24 h, Fig S6d",710 +/- 67%
same,KLHDC2 level relative to DMSO (100%),"U2OS, 5µM, 2hr, Fig S6h",101 +/- 1.9%
same,KLHDC2 level relative to DMSO (100%),"U2OS, 5µM, 4hr, Fig S6h",122+/- 8.2%
same,KLHDC2 level relative to DMSO (100%),"U2OS, 5µM, 8hr, Fig S6i",111 +/- 6.4%
same,KLHDC2 level relative to DMSO (100%),"U2OS, 5µM, 8hr, Fig S6h",151 +/- 8.8%
same,KLHDC2 level relative to DMSO (100%),"U2OS, 5µM, 24hr, Fig S6h",127 +/- 8.2%
